Data as given in ChEMBL document CHEMBL3045679, “Microwave-assisted synthesis and pharmacological studies of novel 5-deazaalloxazine derivatives” (2012).

Legend:
Type in all cases: functional
Candida albicans = experiment: Antifungal activity against Candida albicans NCIM 3471 at 10 ug/disk after 72 hr by disk diffusion method; details: NCIM 3471, 72 h, read-out: DIZ
Rhodotorula mucilaginosa = experiment: Antifungal activity against Rhodotorula mucilaginosa NCIM 3174 at 10 ug/disk after 72 hr by disk diffusion method; details: NCIM 3174, 72 h, read-out: DIZ
Aspergillus flavus = experiment: Antifungal activity against Aspergillus flavus NCIM 535 at 10 ug/disk after 72 hr by disk diffusion method; details: NCIM 535, 72 h, read-out: DIZ
Aspergillus niger = experiment: Antifungal activity against Aspergillus niger NCIM 1196 at 10 ug/disk after 72 hr by disk diffusion method; details: NCIM 1196, 72 h, read-out: DIZ
Penicillium chrysogenum = experiment: Antifungal activity against Penicillium chrysogenum NCIM 707 at 10 ug/disk after 72 hr by disk diffusion method; details: NCIM 707, 72 h, read-out: DIZ
Lipomyces lipofer = experiment: Antifungal activity against Lipomyces lipofer NCIM 3252 at 10 ug/disk after 72 hr by disk diffusion method; details: NCIM 3252, 72 h, read-out: DIZ
Streptomyces albus = experiment: Antibacterial activity against Streptomyces albus NCIM 2178 at 5 ug/disk after 24 hr by disk diffusion method; details: NCIM 2178, 24 h, read-out: DIZ
Bacillus cereus = experiment: Antibacterial activity against Bacillus cereus NCIM 2155 at 5 ug/disk after 24 hr by disk diffusion method; details: NCIM 2155, 24 h, read-out: DIZ
Bacillus subtilis = experiment: Antibacterial activity against Bacillus subtilis NCIM 2063 at 5 ug/disk after 24 hr by disk diffusion method; details: NCIM 2063, 24 h, read-out: DIZ
Klebsiella aerogenes = experiment: Antibacterial activity against Enterobacter aerogenes NCIM 2239 at 5 ug/disk after 24 hr by disk diffusion method; details: NCIM 2239, 24 h, read-out: DIZ
Pseudomonas aeruginosa = experiment: Antibacterial activity against Pseudomonas aeruginosa NCIM 2200 at 5 ug/disk after 24 hr by disk diffusion method; details: NCIM 2200, 24 h, read-out: DIZ
Escherichia coli = experiment: Antibacterial activity against Escherichia coli NCIM 2065 at 5 ug/disk after 24 hr by disk diffusion method; details: NCIM 2065, 24 h, read-out: DIZ

SMILES	zone of inhibition at 10 µg/disc (Candida albicans)	zone of inhibition at 10 µg/disc (Rhodotorula mucilaginosa)	zone of inhibition at 10 µg/disc (Aspergillus flavus)	zone of inhibition at 10 µg/disc (Aspergillus niger)	zone of inhibition at 10 µg/disc (Penicillium chrysogenum)	zone of inhibition at 10 µg/disc (Lipomyces lipofer)	zone of inhibition at 5 µg/disc (Streptomyces albus)	zone of inhibition at 5 µg/disc (Bacillus cereus)	zone of inhibition at 5 µg/disc (Bacillus subtilis)	zone of inhibition at 5 µg/disc (Klebsiella aerogenes)	zone of inhibition at 5 µg/disc (Pseudomonas aeruginosa)	zone of inhibition at 5 µg/disc (Escherichia coli)
Clc1ccccc1C(c1ccccc1)(c1ccccc1)n1ccnc1 [CLOTRIMAZOLE]	18 mm	17 mm	16 mm	16 mm	21 mm	18 mm	–	–	–	–	–	–
CC1COc2c(N3CCN(C)CC3)c(F)cc3c(=O)c(C(=O)O)cn1c23 (configuration not stated) [OFLOXACIN]	–	–	–	–	–	–	21 mm	19 mm	22 mm	21 mm	22 mm	23 mm
